From ChEMBL document CHEMBL1201862, “PubChem BioAssay data set” (2004)
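Cultured in 96-well plates, cells were exposed to test compound for 48 hours across five concentrations. Abbreviation: GI50, concentration required for 50% inhibition of growth.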 Active and inactive are the calls of the source. Rule as the data show it: active = GI50 up to about 1.1 µM and inactive = higher.

Columns and labels:
Assay in all cases: growth of human tumour cells (NCI), 48 h
MCF7 = system: MCF7
RXF 393 = system: RXF 393
KM12 = system: KM12
EKVX = system: EKVX
HCT-15 = system: HCT-15
NCI-H460 = system: NCI-H460
M14 = system: M14
HCT-116 = system: HCT-116
NCI/ADR-RES = system: NCI/ADR-RES
OVCAR-5 = system: OVCAR-5
NCI-H522 = system: NCI-H522
MDA-MB-435 = system: MDA-MB-435
HL-60 = system: HL-60
SF-539 = system: SF-539
A498 = system: A498
SK-MEL-2 = system: SK-MEL-2
SF-268 = system: SF-268
Hs-578T = system: Hs-578T
BT-549 = system: BT-549
MDA-MB-231 = system: MDA-MB-231
DU-145 = system: DU-145
OVCAR-4 = system: OVCAR-4
HOP-62 = system: HOP-62
T47D = system: T47D
UO-31 = system: UO-31
UACC-257 = system: UACC-257
SW-620 = system: SW-620
SK-OV-3 = system: SK-OV-3
SK-MEL-5 = system: SK-MEL-5
UACC-62 = system: UACC-62
TK-10 = system: TK-10
HOP-92 = system: HOP-92
CAKI-1 = system: CAKI-1
COLO 205 = system: COLO 205
CCRF-CEM = system: CCRF-CEM
SNB-19 = system: SNB-19
OVCAR-8 = system: OVCAR-8
PC-3 = system: PC-3
SF-295 = system: SF-295
NCI-H23 = system: NCI-H23
MOLT-4 = system: MOLT-4
SN12C = system: SN12C
MDA-N = system: MDA-N
LOX IMVI = system: LOX IMVI
ACHN = system: ACHN
SR = system: SR
786-0 = system: 786-0
HCC 2998 = system: HCC 2998
OVCAR-3 = system: OVCAR-3
SNB-75 = system: SNB-75
NCI-H226 = system: NCI-H226
U-251 = system: U-251
IGROV-1 = system: IGROV-1
K562 = system: K562
SK-MEL-28 = system: SK-MEL-28
Malme-3M = system: Malme-3M
RPMI-8226 = system: RPMI-8226
A549 = system: A549
HT-29 = system: HT-29

SMILES: CC(=O)O[C@@H]1[C@H]2[C@@H](OC(=O)c3ccccc3)[C@@H](C)C[C@]2(O)[C@H](OC(C)=O)[C@@]2(C)[C@@H]3CC(C)(C)C(=O)[C@]3(OC(C)=O)C[C@@]12C
- GI50 (MCF7): > 25 µM (inactive)
- GI50 (RXF 393): > 25 µM (inactive)
- GI50 (KM12): > 25 µM (inactive)
- GI50 (EKVX): > 25 µM (inactive)
- GI50 (HCT-15): > 25 µM
- GI50 (NCI-H460): 2.06 µM (inactive)
- GI50 (M14): 20.8 µM (inactive)
- GI50 (HCT-116): > 25 µM (inactive)
- GI50 (NCI/ADR-RES): > 25 µM (inactive)
- GI50 (OVCAR-5): > 25 µM (inactive)
- GI50 (NCI-H522): > 25 µM (inactive)
- GI50 (MDA-MB-435): 13.8 µM (inactive)
- GI50 (HL-60): 1.35 µM (inactive)
- GI50 (SF-539): 13.2 µM (inactive)
- GI50 (A498): 12.8 µM (inactive)
- GI50 (SK-MEL-2): > 25 µM (inactive)
- GI50 (SF-268): > 25 µM (inactive)
- GI50 (Hs-578T): 9.53 µM (inactive)
- GI50 (BT-549): > 25 µM (inactive)
- GI50 (MDA-MB-231): > 25 µM (inactive)
- GI50 (DU-145): > 25 µM (inactive)
- GI50 (OVCAR-4): > 25 µM (inactive)
- GI50 (HOP-62): 10.9 µM (inactive)
- GI50 (T47D): > 25 µM (inactive)
- GI50 (UO-31): 13.9 µM (inactive)
- GI50 (UACC-257): > 25 µM (inactive)
- GI50 (SW-620): 24.3 µM (inactive)
- GI50 (SK-OV-3): > 25 µM (inactive)
- GI50 (SK-MEL-5): 18.7 µM (inactive)
- GI50 (UACC-62): > 25 µM (inactive)
- GI50 (TK-10): > 25 µM (inactive)
- GI50 (HOP-92): 8.24 µM (inactive)
- GI50 (CAKI-1): 13.4 µM (inactive)
- GI50 (COLO 205): 7.05 µM (inactive)
- GI50 (CCRF-CEM): 1.92 µM (inactive)
- GI50 (SNB-19): > 25 µM (inactive)
- GI50 (OVCAR-8): 20.6 µM (inactive)
- GI50 (PC-3): 17.7 µM (inactive)
- GI50 (SF-295): 7 µM (inactive)
- GI50 (NCI-H23): > 25 µM (inactive)
- GI50 (MOLT-4): 2.09 µM (inactive)
- GI50 (SN12C): > 25 µM (inactive)
- GI50 (MDA-N): 8.91 µM (inactive)
- GI50 (LOX IMVI): > 25 µM (inactive)
- GI50 (ACHN): > 25 µM (inactive)
- GI50 (SR): 20.7 µM (inactive)
- GI50 (786-0): 17.1 µM (inactive)
- GI50 (HCC 2998): 6.9 µM (inactive)
- GI50 (OVCAR-3): > 25 µM (inactive)
- GI50 (SNB-75): 1.95 µM (inactive)
- GI50 (NCI-H226): > 25 µM (inactive)
- GI50 (U-251): > 25 µM (inactive)
- GI50 (IGROV-1): > 25 µM (inactive)

SMILES: O=C(C(=O)n1ccc2ccccc21)n1ccc2ccccc21
- GI50 (MCF7): > 100 µM (inactive)
- GI50 (RXF 393): 88.7 µM (inactive)
- GI50 (K562): 71.4 µM (inactive)
- GI50 (EKVX): > 100 µM (inactive)
- GI50 (HCT-15): > 100 µM
- GI50 (NCI-H460): 36.6 µM (inactive)
- GI50 (HCT-116): > 100 µM (inactive)
- GI50 (NCI/ADR-RES): > 100 µM (inactive)
- GI50 (OVCAR-5): > 100 µM (inactive)
- GI50 (NCI-H522): 49.2 µM (inactive)
- GI50 (MDA-MB-435): > 100 µM (inactive)
- GI50 (SK-MEL-28): > 100 µM (inactive)
- GI50 (SF-539): 37 µM (inactive)
- GI50 (Malme-3M): > 100 µM (inactive)
- GI50 (A498): > 100 µM (inactive)
- GI50 (SK-MEL-2): > 100 µM (inactive)
- GI50 (SF-268): 84.7 µM (inactive)
- GI50 (Hs-578T): 27.5 µM (inactive)
- GI50 (RPMI-8226): > 100 µM (inactive)
- GI50 (BT-549): > 100 µM (inactive)
- GI50 (MDA-MB-231): > 100 µM (inactive)
- GI50 (DU-145): > 100 µM (inactive)
- GI50 (OVCAR-4): 29 µM (inactive)
- GI50 (HOP-62): 99.3 µM (inactive)
- GI50 (T47D): > 100 µM (inactive)
- GI50 (UO-31): > 100 µM (inactive)
- GI50 (UACC-257): > 100 µM (inactive)
- GI50 (SW-620): > 100 µM (inactive)
- GI50 (SK-OV-3): 48.3 µM (inactive)
- GI50 (SK-MEL-5): > 100 µM (inactive)
- GI50 (UACC-62): 57.9 µM (inactive)
- GI50 (TK-10): > 100 µM (inactive)
- GI50 (HOP-92): 34 µM (inactive)
- GI50 (CAKI-1): > 100 µM (inactive)
- GI50 (COLO 205): > 100 µM (inactive)
- GI50 (CCRF-CEM): 38.7 µM (inactive)
- GI50 (SNB-19): 54.6 µM (inactive)
- GI50 (OVCAR-8): 59.7 µM (inactive)
- GI50 (PC-3): > 100 µM (inactive)
- GI50 (SF-295): 37.6 µM (inactive)
- GI50 (NCI-H23): 75.3 µM (inactive)
- GI50 (MOLT-4): > 100 µM (inactive)
- GI50 (SN12C): > 100 µM (inactive)
- GI50 (MDA-N): > 100 µM (inactive)
- GI50 (LOX IMVI): > 100 µM (inactive)
- GI50 (ACHN): > 100 µM (inactive)
- GI50 (A549): 83.2 µM (inactive)
- GI50 (SR): 40.1 µM (inactive)
- GI50 (786-0): 91.6 µM (inactive)
- GI50 (HCC 2998): > 100 µM (inactive)
- GI50 (OVCAR-3): > 100 µM (inactive)
- GI50 (SNB-75): 10.7 µM (inactive)
- GI50 (HT-29): > 100 µM (inactive)
- GI50 (NCI-H226): > 100 µM (inactive)
- GI50 (U-251): 63.4 µM (inactive)
- GI50 (IGROV-1): 2.12 µM (inactive)

SMILES: CCc1ccccc1NNc1cc(=O)[nH]c(=O)[nH]1
- GI50 (MCF7): 19.4 µM (inactive)
- GI50 (RXF 393): 22.2 µM (inactive)
- GI50 (KM12): 17.3 µM (inactive)
- GI50 (K562): 27 µM (inactive)
- GI50 (EKVX): 17.5 µM (inactive)
- GI50 (NCI-H460): 22.9 µM (inactive)
- GI50 (M14): 18.5 µM (inactive)
- GI50 (HCT-116): 16.7 µM (inactive)
- GI50 (NCI/ADR-RES): 13.3 µM (inactive)
- GI50 (OVCAR-5): 22 µM (inactive)
- GI50 (MDA-MB-435): 19.1 µM (inactive)
- GI50 (SK-MEL-28): 18.1 µM (inactive)
- GI50 (HL-60): 26.7 µM (inactive)
- GI50 (SF-539): 22.6 µM (inactive)
- GI50 (Malme-3M): > 10 µM (inactive)
- GI50 (A498): 21.2 µM (inactive)
- GI50 (SK-MEL-2): 16.6 µM (inactive)
- GI50 (SF-268): > 10 µM (inactive)
- GI50 (Hs-578T): 28.6 µM (inactive)
- GI50 (RPMI-8226): 8.2 µM (inactive)
- GI50 (BT-549): 19.4 µM (inactive)
- GI50 (MDA-MB-231): 17.5 µM (inactive)
- GI50 (DU-145): 46.2 µM (inactive)
- GI50 (OVCAR-4): 20.3 µM (inactive)
- GI50 (HOP-62): 19.3 µM (inactive)
- GI50 (T47D): 17.9 µM (inactive)
- GI50 (UO-31): 17.2 µM (inactive)
- GI50 (UACC-257): 18.5 µM (inactive)
- GI50 (SW-620): 18.6 µM (inactive)
- GI50 (SK-OV-3): 22.6 µM (inactive)
- GI50 (SK-MEL-5): 17.3 µM (inactive)
- GI50 (UACC-62): 19.6 µM (inactive)
- GI50 (TK-10): > 10 µM (inactive)
- GI50 (HOP-92): 16.6 µM (inactive)
- GI50 (CAKI-1): 4.09 µM (inactive)
- GI50 (COLO 205): 18 µM (inactive)
- GI50 (CCRF-CEM): 26.5 µM (inactive)
- GI50 (SNB-19): 20.3 µM (inactive)
- GI50 (OVCAR-8): 23.4 µM (inactive)
- GI50 (PC-3): 16.6 µM (inactive)
- GI50 (SF-295): 17.9 µM (inactive)
- GI50 (NCI-H23): 34.8 µM (inactive)
- GI50 (MOLT-4): 26.7 µM (inactive)
- GI50 (SN12C): 18.8 µM (inactive)
- GI50 (MDA-N): 17.9 µM (inactive)
- GI50 (LOX IMVI): 14 µM (inactive)
- GI50 (ACHN): 16.9 µM (inactive)
- GI50 (A549): 24.5 µM (inactive)
- GI50 (SR): 30.5 µM (inactive)
- GI50 (786-0): 16.6 µM (inactive)
- GI50 (HCC 2998): 16.6 µM (inactive)
- GI50 (OVCAR-3): 17.1 µM (inactive)
- GI50 (SNB-75): 17.7 µM (inactive)
- GI50 (HT-29): 20.8 µM (inactive)
- GI50 (NCI-H226): 18.5 µM (inactive)
- GI50 (U-251): 17.4 µM (inactive)
- GI50 (IGROV-1): 19.5 µM (inactive)
